Results as given in patent publication US20230399320A1, “NOVEL CAPSID ASSEMBLY INHIBITOR” (Pelemed Co., Ltd., priority 2020, published 2023).
Where two headings read alike, the source gives them in different places.

What was measured:
[1] = test system: HBV DNA; assay: Quantitative PCR for measuring HBV DNA in cells (HBV DNA quantification); assay type: cell-based
Protocol: After treating cells with the indicated compounds, HBV DNA secreted into the medium and intracellular HBV DNA were extracted, purified, and quantified by quantitative PCR. To isolate the secreted HBV DNA, the culture medium was recovered and centrifuged at 15,000×g to remove debris. The medium was diluted 1:1 with phosphate-buffered saline (PBS), and 1 M NaOH solution was added to a final concentration of 0.1 M. The mixture was incubated at 37° C. for 1 hour. The protein was denatured by adding 2M Tris-HCl solution (pH 7.5) to a final concentration of 0.2 M and incubating at 98° C. for 5 minutes. The protein precipitation was removed by centrifugation at 15,000×g, and the supernatant was subjected to PCR with HBV DNA primer and probe sets:
Forward: 5′-[…]-3′, Reverse: 5′-[…]-3′, Probe: 5′-[…]-3′.

[2] = target: T1, Cp149 (truncated form of a HBV core protein) (Hepatitis B virus genotype D subtype ayw, UniProt P03146); assay: Protein based assay: immunoblot analysis of in vitro HBV capsid assembly; assay type: biochemical; settings: for inhibition at 10 µM: read-out: Protein based assay (% inhibition, 10 μM); for inhibition at 0.1 µM: read-out: Protein based assay (% inhibition), 0.1 μM; for inhibition at 1 µM: read-out: Protein based assay (% inhibition), 1 μM
T1 construct: Cp149 (amino acids 1-149) is a truncated form of a HBV core protein; histidine tag (cleaved yes); made in house; host or cells: Escherichia coli BL21(DE3)
T1 sequence (P03146 1-149): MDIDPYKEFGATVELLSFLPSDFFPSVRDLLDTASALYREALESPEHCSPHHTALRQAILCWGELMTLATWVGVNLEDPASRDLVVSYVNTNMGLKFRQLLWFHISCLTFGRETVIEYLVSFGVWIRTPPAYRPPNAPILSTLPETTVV
Protocol: Cp149 (amino acids 1-149) is a truncated form of a HBV core protein. It was expressed in Escherichia coli, and the expressed protein was purified. The recombinant Cp149 was expressed in E. coli BL21(DE3) cells cultured in LB medium at 37° C. When the culture reached an OD600 of 0.7 to 0.8, expression of the culture was induced with 0.5 mM isopropyl-β-d-thiogalactopyranoside and the culture was cooled to 16° C. After 16 hours, the cells were harvested, flash-frozen in liquid nitrogen, and stored at −80° C. To purify Cp149, thawed cells were resuspended in lysis buffer (20 mM Tris-HCl pH 9.0, 200 mM NaCl, 10 mM imidazole, 10 μg per mL DNaseI, 1 mM phenylmethylsulfonyl fluoride), and treated with ultrasonic waves. The supernatant was loaded onto Ni-NTA affinity resin. Proteins were eluted using a 20 mM to 500 mM imidazole gradient dissolved in lysis buffer. After removing the histidine tag with thrombin, the protein was further purified by HiTrap Q anion exchange chromatography (17115401, GE Healthcare).
To determine the effect on in vitro Cp149 assembly, compounds of the present invention were added to the Cp149-containing suspension. The final concentration of Cp149 was 1 mg per mL, and the compounds of the present invention were added at concentrations of 0.1 to 10 μM. The suspension was mixed with reaction buffer (150 mM HEPES, pH 7.5, 15 mM NaCl) added in a 2:1 ratio. In vitro assembly was performed at 37° C. for 1 hour, and HBV capsid was detected by immunoblot analysis using an anti-HBV core antibody (1:2000, B0586, Dako).

[3] = Hepatitis B virus, read-out: HBV DNA quantification (IC50 μM)
[4] = Hepatitis B virus; read-out: HBV DNA quantification (IC50 μM)
[5] = Hepatitis B virus, read-out: HBV DNA quantification

Compound | IC50 [1, 3] [µM] | inhibition at 10 µM [2] [%] | IC50 [1, 4] [µM] | also measured
CS(=O)(=O)c1nc(Nc2ccc(F)c(Cl)c2)cc(N2CC3(CNC3)C2)n1 [Compound 29b, N-(3-chloro-4-fluorophenyl)-2-(methylsulfonyl)-6-(2,6-diazaspiro[3.3]heptan-2-yl)pyrimidin-4-amine] | 0.235 |  |  | 
COc1ncccc1C(=O)NCCNc1cc(Nc2ccc(F)cc2)nc(SC)n1 [Compound 8b, N-(2-(6-(4-fluorophenylamino)-2-(methylthio)pyrimidin-4-ylamino)ethyl)-2-methoxynicotinamide] |  | 74 |  | 
CSc1nc(Cl)cc(N(Cc2ccc(F)cc2)c2ccc(N3CCOCC3)cc2)n1 [Compound 10a, 6-chloro-N-(4-fluorobenzyl)-2-(methylthio)-N-(4-morpholinophenyl)pyrimidin-4-amine] | > 10 | 58 |  | 
CS(=O)(=O)c1nc(Nc2ccc(F)c(Cl)c2)cc(Nc2ccc(F)c(Cl)c2)n1 [Compound 18c, N^4,N^6-bis(3-chloro-4-fluorophenyl)-2-(methylsulfonyl)pyrimidine-4,6-diamine] | 0.587 | 57 |  | 
CS(=O)(=O)c1nc(Nc2ccc(F)cc2)cc(N2CCNCC2)n1 [Compound 26a, N-(4-fluorophenyl)-2-(methylsulfonyl)-6-(piperazin-1-yl)pyrimidin-4-amine] |  | 86 | 0.962 | 
COc1ncccc1C(=O)N1CCN(c2cc(Nc3ccc(N4CCOCC4)cc3)nc(SC)n2)CC1 [Compound 13, (2-methoxypyridin-3-yl)(4-(2-(methylthio)-6-(4-morpholinophenylamino)pyrimidin-4-yl)piperazin-1-yl)methanone] |  | 31 | > 10 | 
CS(=O)(=O)c1nc(Nc2ccc(F)c(Cl)c2)cc(N2C[C@H]3C[C@@H]2CN3)n1 [Compound 29a, 6-((1R,4R)-2,5-diazabicyclo[2.2.1]heptan-2-yl)-N-(3-chloro-4-fluorophenyl)-2-(methylsulfonyl)pyrimidin-4-amine] | 0.15 |  |  | 
CS(=O)(=O)c1nc(Cl)cc(Nc2ccc(F)cc2F)n1 [Compound 16a, 6-chloro-N-(2,4-difluorophenyl)-2-(methylsulfonyl)pyrimidin-4-amine] | > 10 | 85 |  | 
CS(=O)(=O)c1nc(Nc2ccc(F)c(Cl)c2)cc(N2CCNCC2)n1 [Compound 26c, N-(3-chloro-4-fluorophenyl)-2-(methylsulfonyl)-6-(piperazin-1-yl)pyrimidin-4-amine] | 0.189 |  |  | inhibition at 0.1 µM [2]: 47%; inhibition at 1 µM [2]: 90%
COc1ncccc1C(=O)NCCNc1cc(Nc2ccc(F)cc2Cl)nc(SC)n1 [Compound 8g, N-(2-(6-(2-chloro-4-fluorophenylamino)-2-(methylthio)pyrimidin-4-ylamino)ethyl)-2-methoxynicotinamide] |  | 43 |  | IC50 [1, 5]: > 10 µM
CSc1nc(Cl)cc(N(CCc2ccc(F)cc2)c2ccc(N3CCOCC3)cc2)n1 [Compound 10b, 6-chloro-N-(4-fluorophenethyl)-2-(methylthio)-N-(4-morpholinophenyl)pyrimidin-4-amine] | > 10 | 76 |  | 
COc1ncccc1C(=O)NCCNc1cc(Nc2ccc(F)c(F)c2)nc(SC)n1 [Compound 8f, N-(2-(6-(3,4-difluorophenylamino)-2-(methylthio)pyrimidin-4-ylamino)ethyl)-2-methoxynicotinamide] |  | 37 |  | IC50 [1, 5]: > 10 µM
CC(C)(C)OC(=O)N1CCN(c2cc(Nc3ccc(F)c(F)c3)nc(S(C)(=O)=O)n2)CC1 [Compound 22g, tert-butyl 4-(6-(3,4-difluorophenylamino)-2-(methylsulfonyl)pyrimidin-4-yl)piperazine-1-carboxylate] | 0.658 | 84 |  | 
COc1ncccc1C(=O)NCCNc1cc(Nc2ccc(Br)cc2)nc(SC)n1 [Compound 8d, N-(2-(6-(4-bromophenylamino)-2-(methylthio)pyrimidin-4-ylamino)ethyl)-2-methoxynicotinamide] |  | 76 |  | IC50 [1, 5]: > 10 µM
CS(=O)(=O)c1nc(Nc2ccc(F)cc2)cc(Nc2ccc(F)cc2)n1 [Compound 18a, N^4,N^6-bis(4-fluorophenyl)-2-(methylsulfonyl)pyrimidine-4,6-diamine] |  | 49 | 6.4 | 
COc1cncc(C(=O)NCCNc2cc(Nc3ccc(N4CCOCC4)cc3)nc([S+](C)[O-])n2)c1 (stereo not drawn) [Compound 5b, 5-methoxy-N-(2-(2-(methylsulfinyl)-6-(4-morpholinophenylamino)pyrimidin-4-ylamino)ethyl)nicotinamide] |  | 78 | > 10 | 
CS(=O)(=O)c1nc(Cl)cc(Nc2cc(F)c(F)c(F)c2)n1 [Compound 16b, 6-chloro-2-(methylsulfonyl)-N-(3,4,5-trifluorophenyl)pyrimidin-4-amine] | 0.473 | 82 |  | 
CC(C)(C)OC(=O)N1CCN(c2cc(Nc3ccc(I)cc3)nc(S(C)(=O)=O)n2)CC1 [Compound 22f, tert-butyl 4-(6-(4-iodophenylamino)-2-(methylsulfonyl)pyrimidin-4-yl)piperazine-1-carboxylate] | 1.1 | 66 |  | 
CS(=O)(=O)c1nc(Nc2ccc(F)c(Br)c2)cc(N2CCNCC2)n1 [Compound 26d, N-(3-bromo-4-fluorophenyl)-2-(methylsulfonyl)-6-(piperazin-1-yl)pyrimidin-4-amine] |  |  | 0.547 | inhibition at 0.1 µM [2]: 13%; inhibition at 1 µM [2]: 98%
CS(=O)(=O)c1nc(Nc2ccc(F)c(Cl)c2)cc(N2C[C@@H]3C[C@H]2CN3)n1 [Compound 29c, 6-((1S,4S)-2,5-diazabicyclo[2.2.1]heptan-2-yl)-N-(3-chloro-4-fluorophenyl)-2-(methylsulfonyl)pyrimidin-4-amine] | 0.428 |  |  | 
C[S+]([O-])c1nc(NCCNC(=O)c2ccc(F)cc2)cc(Nc2ccc(N3CCOCC3)cc2)n1 (stereo not drawn) [Compound 5c, 4-fluoro-N-(2-(2-(methylsulfinyl)-6-(4-morpholinophenylamino)pyrimidin-4-ylamino)ethyl)benzamide] |  | 0 | > 10 | 
CS(=O)(=O)c1nc(Nc2ccc(F)c(Br)c2)cc(NC2CCNCC2)n1 [Compound 26g, N^4-(3-bromo-4-fluorophenyl)-2-(methylsulfonyl)-N^6-(piperidin-4-yl)pyrimidine-4,6-diamine] |  |  | 0.536 | inhibition at 0.1 µM [2]: 7%; inhibition at 1 µM [2]: 97%
COc1ncccc1C(=O)NCCNc1cc(Nc2ccc(Cl)cc2)nc(SC)n1 [Compound 8c, N-(2-(6-(4-chlorophenylamino)-2-(methylthio)pyrimidin-4-ylamino)ethyl)-2-methoxynicotinamide] |  | 26 |  | IC50 [1, 5]: > 10 µM
COc1ncccc1C(=O)N1CCN(c2cc(Nc3ccc(N4CCOCC4)cc3)nc([S+](C)[O-])n2)CC1 (stereo not drawn) [Compound 14, (2-methoxypyridin-3-yl)(4-(2-(methylsulfinyl)-6-(4-morpholinophenylamino)pyrimidin-4-yl)piperazin-1-yl)methanone] |  | 33 | > 10 | 
CSc1nc(NCCNC(=O)c2ccc(F)cc2)cc(Nc2ccc(N3CCOCC3)cc2)n1 [Compound 4c, 4-fluoro-N-(2-(2-(methylthio)-6-(4-morpholinophenylamino)pyrimidin-4-ylamino)ethyl)benzamide] |  | 0 | > 10 | 
CS(=O)(=O)c1nc(Nc2ccc(F)c(Cl)c2)cc(N2C[C@@H]3[C@@H](N)[C@@H]3C2)n1 [Compound 29d, (1R,5S,6s)-3-(6-(3-chloro-4-fluorophenylamino)-2-(methylsulfonyl)pyrimidin-4-yl)-3-azabicyclo[3.1.0]hexan-6-amine] |  |  |  | IC50 ([1]; read-out: HBV DNA quantification (IC50 μM)): 0.769 µM
COc1ncccc1C(=O)NCCNc1cc(Nc2ccc(I)cc2)nc(SC)n1 [Compound 8e, N-(2-(6-(4-iodophenylamino)-2-(methylthio)pyrimidin-4-ylamino)ethyl)-2-methoxynicotinamide] |  | 43 |  | 
